Key:
bedstraw = assay: Test B pre/postemergence bedstraw; type: in vivo, Galium aparine
Outline: (§1)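 Response is a visual 0-to-10 score relative to untreated plants, where 0 means no effect and 10 means complete control, taken twelve to sixteen days after application. Treatments went onto soil at planting and onto foliage of 1- to 4-leaf plants, using a surfactant-containing non-phytotoxic solvent.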

blackgrass = assay: Test B pre/postemergence blackgrass; type: in vivo, Alopecurus myosuroides
Outline: as §1

surinam grass = assay: Test B pre/postemergence surinam grass; type: in vivo, Brachiaria decumbens
Outline: as §1

corn = assay: Test B pre/postemergence corn; type: in vivo, Zea mays; settings: for Corn plant response rating: scale of 0 to 10 where 0 is no effect and 10 is complete control
Outline: as §1

giant foxtail = assay: Test B pre/postemergence giant foxtail; type: in vivo, Setaria faberii; settings: for Giant foxtail plant response rating: scale of 0 to 10 where 0 is no effect and 10 is complete control
Outline: as §1

morningglory = assay: Test B pre/postemergence morningglory; type: in vivo, Ipomoea hederacea; settings: for Morningglory plant response rating: scale of 0 to 10 where 0 is no effect and 10 is complete control
Outline: as §1

pigweed = assay: Test B pre/postemergence pigweed; type: in vivo, Amaranthus retroflexus; settings: for Redroot pigweed plant response rating: scale of 0 to 10 where 0 is no effect and 10 is complete control
Outline: as §1

rape = assay: Test B pre/postemergence rape; type: in vivo, Brassica napus; settings: for Rape plant response rating: scale of 0 to 10 where 0 is no effect and 10 is complete control
Outline: as §1

soybean = assay: Test B pre/postemergence soybean; type: in vivo, Glycine max; settings: for Soybean plant response rating: scale of 0 to 10 where 0 is no effect and 10 is complete control
Outline: as §1

sugar beet = assay: Test B pre/postemergence sugar beet; type: in vivo, Beta vulgaris; settings: for Sugarbeets plant response rating: scale of 0 to 10 where 0 is no effect and 10 is complete control
Outline: as §1

velvetleaf = assay: Test B pre/postemergence velvetleaf; type: in vivo, Abutilon theophrasti; settings: for Velvetleaf plant response rating: scale of 0 to 10 where 0 is no effect and 10 is complete control
Outline: as §1

purple nutsedge = assay: Test B pre/postemergence purple nutsedge; type: in vivo, Cyperus rotundus; settings: for Nutsedge plant response rating: scale of 0 to 10 where 0 is no effect and 10 is complete control
Outline: as §1

rice = assay: Test B flood test rice; type: in vivo, Oryza sativa
Outline: (§2)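 Read-out is a visual response score from 0 (no effect) to 10 (complete control), assigned by comparison with untreated controls. Treatment was applied at the 2-leaf stage, and plants stayed in the greenhouse for twelve to sixteen days before scoring.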

smallflower flatsedge = assay: Test B flood test smallflower flatsedge; type: in vivo, Cyperus difformis
Outline: as §2

duck salad = assay: Test B flood test duck salad; type: in vivo, Heteranthera limosa
Outline: as §2

bamyardgrass = assay: Test B flood test barnyardgrass; type: in vivo, Echinochloa crus-galli
Outline: as §2

[1] = Postemergence, Rate 125 g/ha, scale 0 to 10, 0 is no effect, 10 is complete control
[2] = Preemergence, Rate 62 g/ha, scale 0 to 10 (0 no effect, 10 complete control)
[3] = Rate 62 g/ha, Postemergence, scale of 0 to 10 where 0 is no effect and 10 is complete control
[4] = Rate 250 g/ha, Postemergence, scale of 0 to 10 where 0 is no effect and 10 is complete control
[5] = Rate 500 g/ha, Postemergence, scale 0 to 10, 0 no effect, 10 complete control
[6] = Preemergence, Rate 250 g/ha, scale of 0 to 10 where 0 is no effect and 10 is complete control
[7] = Preemergence, Rate 500 g/ha, scale of 0 to 10 where 0 is no effect and 10 is complete control
[8] = Postemergence (flood test), Rate 125 g/ha, scale 0 to 10, 0 is no effect, 10 is complete control
[9] = Rate 62 g/ha, Postemergence (flood test species), scale of 0 to 10 where 0 is no effect and 10 is complete control
[10] = Rate 500 g/ha, listed under Postemergence (flood test species), scale 0 to 10, 0 no effect, 10 complete control

For `COCC(C)n1c(=O)on(C(=O)N(c2ccc(F)cc2F)C(C)C)c1=O` (stereo not shown) [Compound 352], the “Plant response rating, Bedstraw” value (bedstraw; [1]) was 0, the “Plant response rating, Bedstraw” value (bedstraw; [2]) was 0 and the “Bedstraw plant response rating (0 to 10 scale)” value (bedstraw; Preemergence, Rate 125 g/ha) was 0. For the same molecule, the “Bedstraw plant response rating” value (bedstraw; [3]) was 0, the “Plant response rating, Bedstraw” value (bedstraw; [4]) was 2 and the “Plant response rating, Bedstraw” value (bedstraw; [5]) was 4. For the same molecule, the “Plant response rating, Blackgrass” value (blackgrass; [1]) was 8, the “Plant response rating, Blackgrass” value (blackgrass; [2]) was 9 and the “Blackgrass plant response rating (0 to 10 scale)” value (blackgrass; Preemergence, Rate 125 g/ha) was 10. For the same molecule, the “Blackgrass plant response rating” value (blackgrass; [6]) was 10, the “Blackgrass plant response rating” value (blackgrass; [7]) was 10 and the “Blackgrass plant response rating” value (blackgrass; [3]) was 8. The “Plant response rating, Blackgrass” value (blackgrass; [4]) was 8, the “Plant response rating, Blackgrass” value (blackgrass; [5]) was 8 and the “Plant response rating, B. signalgrass” value (surinam grass; [1]) was 2. For the same molecule, the “Plant response rating, B. signalgrass” value (surinam grass; [2]) was 2, the “B. signalgrass plant response rating (0 to 10 scale, 0 is no effect, 10 is complete control)” value (surinam grass; Preemergence, Rate 125 g/ha) was 6 and the “B. signalgrass plant response rating” value (surinam grass; [6]) was 7. The “B. signalgrass plant response rating” value (surinam grass; [7]) was 7, the “B. signalgrass plant response rating” value (surinam grass; [3]) was 0 and the “Plant response rating, B. signalgrass” value (surinam grass; [4]) was 7. The “Plant response rating, B. signalgrass” value (surinam grass; [5]) was 7, the “Plant response rating, Corn” value (corn; [1]) was 0 and the “Plant response rating, Corn” value (corn; [2]) was 0. The “Corn plant response rating (0 to 10 scale)” value (corn; Preemergence, Rate 125 g/ha) was 5, the “Corn plant response rating” value (corn; Preemergence, Rate 250 g/ha) was 6 and the “Corn plant response rating” value (corn; Preemergence, Rate 500 g/ha) was 9. For the same molecule, the “Corn plant response rating” value (corn; Rate 62 g/ha, Postemergence) was 0, the “Plant response rating, Corn” value (corn; [5]) was 6 and the “Plant response rating, Giant foxtail” value (giant foxtail; [1]) was 2. The “Plant response rating, Giant foxtail” value (giant foxtail; [2]) was 10, the “Giant foxtail plant response rating (0 to 10 scale)” value (giant foxtail; Preemergence, Rate 125 g/ha) was 10 and the “Giant foxtail plant response rating” value (giant foxtail; Preemergence, Rate 250 g/ha) was 10. For the same molecule, the “Giant foxtail plant response rating” value (giant foxtail; Preemergence, Rate 500 g/ha) was 10, the “Giant foxtail plant response rating” value (giant foxtail; Rate 62 g/ha, Postemergence) was 2 and the “Plant response rating, Giant foxtail” value (giant foxtail; [5]) was 9. For the same molecule, the “Plant response rating, Morningglory” value (morningglory; [1]) was 6, the “Plant response rating, Morningglory” value (morningglory; [2]) was 0 and the “Morningglory plant response rating (0 to 10 scale)” value (morningglory; Preemergence, Rate 125 g/ha) was 0. For the same molecule, the “Morningglory plant response rating” value (morningglory; Preemergence, Rate 250 g/ha) was 0, the “Morningglory plant response rating” value (morningglory; Preemergence, Rate 500 g/ha) was 2 and the “Morningglory plant response rating” value (morningglory; Rate 62 g/ha, Postemergence) was 0. The “Plant response rating, Morningglory” value (morningglory; [5]) was 8, the “Plant response rating, Redroot pigweed” value (pigweed; [1]) was 3 and the “Redroot pigweed plant response rating (0 to 10 scale)” value (pigweed; Preemergence, Rate 125 g/ha) was 3. The “Redroot pigweed plant response rating” value (pigweed; Preemergence, Rate 250 g/ha) was 10, the “Redroot pigweed plant response rating” value (pigweed; Preemergence, Rate 500 g/ha) was 10 and the “Redroot pigweed plant response rating” value (pigweed; Rate 62 g/ha, Postemergence) was 0. The “Plant response rating, Redroot pigweed” value (pigweed; [5]) was 4, the “Plant response rating, Rape” value (rape; [1]) was 0 and the “Plant response rating, Rape” value (rape; [2]) was 0. The “Rape plant response rating (0 to 10 scale)” value (rape; Preemergence, Rate 125 g/ha) was 0, the “Rape plant response rating” value (rape; Preemergence, Rate 250 g/ha) was 0 and the “Rape plant response rating” value (rape; Preemergence, Rate 500 g/ha) was 7. The “Rape plant response rating” value (rape; Rate 62 g/ha, Postemergence) was 0, the “Plant response rating, Rape” value (rape; [5]) was 0 and the “Plant response rating, Soybean” value (soybean; [1]) was 2. The “Plant response rating, Soybean” value (soybean; [2]) was 0, the “Soybean plant response rating (0 to 10 scale)” value (soybean; Preemergence, Rate 125 g/ha) was 0 and the “Soybean plant response rating” value (soybean; Preemergence, Rate 250 g/ha) was 0. The “Soybean plant response rating” value (soybean; Preemergence, Rate 500 g/ha) was 2, the “Soybean plant response rating” value (soybean; Rate 62 g/ha, Postemergence) was 2 and the “Plant response rating, Soybean” value (soybean; [5]) was 4. For the same molecule, the “Plant response rating, Sugarbeets” value (sugar beet; [1]) was 0, the “Plant response rating, Sugarbeets” value (sugar beet; [2]) was 2 and the “Sugarbeets plant response rating (0 to 10 scale)” value (sugar beet; Preemergence, Rate 125 g/ha) was 3. For the same molecule, the “Sugarbeets plant response rating” value (sugar beet; Preemergence, Rate 250 g/ha) was 3, the “Sugarbeets plant response rating” value (sugar beet; Preemergence, Rate 500 g/ha) was 7 and the “Sugarbeets plant response rating” value (sugar beet; Rate 62 g/ha, Postemergence) was 0. The “Plant response rating, Sugarbeets” value (sugar beet; [5]) was 0, the “Plant response rating, Velvetleaf” value (velvetleaf; [1]) was 0 and the “Plant response rating, Velvetleaf” value (velvetleaf; [2]) was 2. For the same molecule, the “Velvetleaf plant response rating (0 to 10 scale)” value (velvetleaf; Preemergence, Rate 125 g/ha) was 4, the “Velvetleaf plant response rating” value (velvetleaf; Preemergence, Rate 250 g/ha) was 6 and the “Velvetleaf plant response rating” value (velvetleaf; Preemergence, Rate 500 g/ha) was 7. The “Velvetleaf plant response rating” value (velvetleaf; Rate 62 g/ha, Postemergence) was 0, the “Plant response rating, Velvetleaf” value (velvetleaf; [5]) was 3 and the “Plant response rating, Nutsedge” value (purple nutsedge; [1]) was 0. The “Plant response rating, Nutsedge” value (purple nutsedge; [2]) was 0, the “Nutsedge plant response rating (0 to 10 scale)” value (purple nutsedge; Preemergence, Rate 125 g/ha) was 0 and the “Nutsedge plant response rating” value (purple nutsedge; Preemergence, Rate 250 g/ha) was 0. For the same molecule, the “Nutsedge plant response rating” value (purple nutsedge; Preemergence, Rate 500 g/ha) was 0, the “Nutsedge plant response rating” value (purple nutsedge; Rate 62 g/ha, Postemergence) was 0 and the “Plant response rating, Nutsedge” value (purple nutsedge; [5]) was 2. For the same molecule, the “Plant response rating, Rice” value (rice; [8]) was 3, the “Rice plant response rating” value (rice; [9]) was 0 and the “Plant response rating, Rice” value (rice; [10]) was 3. The “Plant response rating, S. Flatsedge” value (smallflower flatsedge; [8]) was 7, the “S. Flatsedge plant response rating” value (smallflower flatsedge; [9]) was 2 and the “Plant response rating, S. Flatsedge” value (smallflower flatsedge; [10]) was 7. The “Plant response rating, Ducksalad” value (duck salad; [8]) was 0, the “Ducksalad plant response rating” value (duck salad; [9]) was 0 and the “Plant response rating, Ducksalad” value (duck salad; [10]) was 2. For the same molecule, the “Plant response rating, Barnyardgrass” value (bamyardgrass; [8]) was 3, the “Barnyardgrass plant response rating” value (bamyardgrass; [9]) was 0 and the “Plant response rating, Barnyardgrass” value (bamyardgrass; Rate 250 g/ha, Postemergence (flood test species), scale of 0 to 10 where 0 is no effect and 10 is complete control) was 3. For the same molecule, the “Plant response rating, Barnyardgrass” value (bamyardgrass; [10]) was 3.

Reference: patent publication US6737383B1, “Herbicidal oxadiazolidines” (priority 1999, dated 2004)
